Data published in patent US12435059B2, “AMP-activated protein kinase inhibitors and methods of making and using the same” (The Regents of the University of Colorado, priority 2019, dated 2025).

Key:
Assay in all cases: biochemical
Type in all cases: binding
468 kinases [1] = target: 468 kinases (Homo sapiens, UniProt O00750); details: PIK3C2B; read-out: % Inhibition @ 100 nM
468 kinases [2] = target: 468 kinases (Homo sapiens, UniProt O15530); details: PDPK1; read-out: % Inhibition @ 100 nM
468 kinases [3] = target: 468 kinases (Homo sapiens, UniProt O75116); details: ROCK2; read-out: % Inhibition @ 100 nM
468 kinases [4] = target: 468 kinases (Homo sapiens, UniProt O94806); details: PRKD3; read-out: % Inhibition @ 100 nM
468 kinases [5] = target: 468 kinases (Homo sapiens, UniProt P00533); details: EGFR; read-out: % Inhibition @ 100 nM
468 kinases [6] = target: 468 kinases (Homo sapiens, UniProt P00533, DEL752-759); details: EGFR(S752-1759del); read-out: % Inhibition @ 100 nM
468 kinases [7] = target: 468 kinases (Homo sapiens, UniProt P00533, L861Q); details: EGFR(L861Q); read-out: % Inhibition @ 100 nM
468 kinases [8] = target: 468 kinases (Homo sapiens, UniProt P07332); details: FES; read-out: % Inhibition @ 100 nM
468 kinases [9] = target: 468 kinases (Homo sapiens, UniProt P08631); details: HCK; read-out: % Inhibition @ 100 nM
468 kinases [10] = target: 468 kinases (Homo sapiens, UniProt P15056, V600E); details: BRAF(V600E); read-out: % Inhibition @ 100 nM
468 kinases [11] = target: 468 kinases (Homo sapiens, UniProt P31152); details: ERK4; read-out: % Inhibition @ 100 nM
468 kinases [12] = target: 468 kinases (Homo sapiens, UniProt P36888, K663Q); details: FLT3(K663Q); read-out: % Inhibition @ 100 nM
468 kinases [13] = target: 468 kinases (Homo sapiens, UniProt P42679); details: CTK; read-out: % Inhibition @ 100 nM
468 kinases [14] = target: 468 kinases (Homo sapiens, UniProt P50613); details: CDK7; read-out: % Inhibition @ 100 nM
468 kinases [15] = target: 468 kinases (Homo sapiens, UniProt P51451); details: BLK; read-out: % Inhibition @ 100 nM
468 kinases [16] = target: 468 kinases (Homo sapiens, UniProt P51617); details: IRAK1; read-out: % Inhibition @ 100 nM
468 kinases [17] = target: 468 kinases (Homo sapiens, UniProt P52564); details: MEK6; read-out: % Inhibition @ 100 nM
468 kinases [18] = target: 468 kinases (Homo sapiens, UniProt P53667); details: LIMK1; read-out: % Inhibition @ 100 nM
468 kinases [19] = target: 468 kinases (Homo sapiens, UniProt P54753); details: EPHB3; read-out: % Inhibition @ 100 nM
468 kinases [20] = target: 468 kinases (Homo sapiens, UniProt P57058); details: HUNK; read-out: % Inhibition @ 100 nM
468 kinases [21] = target: 468 kinases (Homo sapiens, UniProt Q05397); details: FAK; read-out: % Inhibition @ 100 nM
468 kinases [22] = target: 468 kinases (Homo sapiens, UniProt Q12852); details: DLK; read-out: % Inhibition @ 100 nM
468 kinases [23] = target: 468 kinases (Homo sapiens, UniProt Q13523); details: PRP4; read-out: % Inhibition @ 100 nM
468 kinases [24] = target: 468 kinases (Homo sapiens, UniProt Q14004); details: read-out: % Inhibition @ 100 nM, CDC2L5
468 kinases [25] = target: 468 kinases (Homo sapiens, UniProt Q16288); details: TRKC; read-out: % Inhibition @ 100 nM
468 kinases [26] = target: 468 kinases (Homo sapiens, UniProt Q16513); details: PKN2; read-out: % Inhibition @ 100 nM
468 kinases [27] = target: 468 kinases (Homo sapiens, UniProt Q16816); details: PHKG1; read-out: % Inhibition @ 100 nM
468 kinases [28] = target: 468 kinases (Homo sapiens, UniProt Q86UE8); details: TLK2; read-out: % Inhibition @ 100 nM
468 kinases [29] = target: 468 kinases (Homo sapiens, UniProt Q8TDC3); details: BRSK1; read-out: % Inhibition @ 100 nM
468 kinases [30] = target: 468 kinases (Homo sapiens, UniProt Q9BYT3); details: STK33; read-out: % Inhibition @ 100 nM
468 kinases [31] = target: 468 kinases (Homo sapiens, UniProt Q9UHD2); details: TBK1; read-out: % Inhibition @ 100 nM
468 kinases [32] = target: 468 kinases (Homo sapiens, UniProt Q9Y2H9); details: MAST1; read-out: % Inhibition @ 100 nM
468 kinases [33] = target: 468 kinases (Homo sapiens, UniProt Q9Y4K4); details: MAP4K5; read-out: % Inhibition @ 100 nM

SMILES | inhibition at 0.1 µM (468 kinases [1]) [%] | inhibition at 0.1 µM (468 kinases [2]) [%] | inhibition at 0.1 µM (468 kinases [3]) [%] | inhibition at 0.1 µM (468 kinases [4]) [%] | inhibition at 0.1 µM (468 kinases [5]) [%] | inhibition at 0.1 µM (468 kinases [6]) [%] | inhibition at 0.1 µM (468 kinases [7]) [%] | inhibition at 0.1 µM (468 kinases [8]) [%] | inhibition at 0.1 µM (468 kinases [9]) [%] | inhibition at 0.1 µM (468 kinases [10]) [%] | inhibition at 0.1 µM (468 kinases [11]) [%] | inhibition at 0.1 µM (468 kinases [12]) [%] | inhibition at 0.1 µM (468 kinases [13]) [%] | inhibition at 0.1 µM (468 kinases [14]) [%] | inhibition at 0.1 µM (468 kinases [15]) [%] | inhibition at 0.1 µM (468 kinases [16]) [%] | inhibition at 0.1 µM (468 kinases [17]) [%] | inhibition at 0.1 µM (468 kinases [18]) [%] | inhibition at 0.1 µM (468 kinases [19]) [%] | inhibition at 0.1 µM (468 kinases [20]) [%] | other results
CCN(CC)CCNC(=O)c1c(C)[nH]c(/C=C2\C(=O)Nc3ccc(CCO)cc32)c1C [Compound No. 10, (Z)—N-(2-(Diethylamino)ethyl)-5-((5-(2-hydroxyethyl)-2-oxoindolin-3-ylidene)methyl)-2,4-dimethyl-1H-pyrrole-3-carboxamide] | 0 | 11 | 29 | 0 | 0 | 14 | 39 | 20 | 2 | 3 | 0 | 96.4 | 22 | 86 | 40 | 99.3 | 11 | 0 | 0 | 13 | inhibition at 0.1 µM (468 kinases [21]): 8%; inhibition at 0.1 µM (468 kinases [22]): 86%; inhibition at 0.1 µM (468 kinases [23]): 87%; inhibition at 0.1 µM (468 kinases [24]): 27%; inhibition at 0.1 µM (468 kinases [25]): 60%; inhibition at 0.1 µM (468 kinases [26]): 24%; inhibition at 0.1 µM (468 kinases [27]): 86%; inhibition at 0.1 µM (468 kinases [28]): 0%; inhibition at 0.1 µM (468 kinases [29]): 29%; inhibition at 0.1 µM (468 kinases [30]): 70%; inhibition at 0.1 µM (468 kinases [31]): 57%; inhibition at 0.1 µM (468 kinases [32]): 40%; inhibition at 0.1 µM (468 kinases [33]): 52%
CCN(CC)CCNC(=O)c1c(C)[nH]c(/C=C2\C(=O)Nc3ccc(CCC(N)=O)cc32)c1C [Compound No. 16, (Z)-5-((5-(3-Amino-3-oxopropyl)-2-oxoindolin-3-ylidene)methyl)-N-(2-(diethylamino)ethyl)-2,4-dimethyl-1H-pyrrole-3-carboxamide] | 24 | 3 | 44 | 53 | 64 | 19 | 4 | 0 | 0 | 0 | 4 | 92.9 | 16 | 80 | 29 | 96.9 | 25 | 17 | 0 | 0 | inhibition at 0.1 µM (468 kinases [21]): 100%; inhibition at 0.1 µM (468 kinases [22]): 100%; inhibition at 0.1 µM (468 kinases [23]): 76%; inhibition at 0.1 µM (468 kinases [24]): 50%; inhibition at 0.1 µM (468 kinases [25]): 63%; inhibition at 0.1 µM (468 kinases [26]): 18%; inhibition at 0.1 µM (468 kinases [27]): 88%; inhibition at 0.1 µM (468 kinases [28]): 23%; inhibition at 0.1 µM (468 kinases [29]): 27%; inhibition at 0.1 µM (468 kinases [30]): 78%; inhibition at 0.1 µM (468 kinases [31]): 58%; inhibition at 0.1 µM (468 kinases [32]): 30%; inhibition at 0.1 µM (468 kinases [33]): 53%
